Each structure is given as a SMILES string.

For the test, the target named is T1, Dimer of Gag-Pol polyprotein [489-587] (Human immunodeficiency virus 1, UniProt P12497).
T1 construct: 489-587
Description: Protease Inhibition Assay. How it is done: The inhibitory activities of the compounds toward HIV-1 PR were determined by sodium dodecyl sulfate-polyacrylamide gel electrophoresis (SDS-PAGE) assay. The IC50 values of active compounds were determined using the partially purified protease and the synthetic substrate Ac-Ser-Gln-AsnTyr-Pro-Ile-Val-NH2.

`Cc1ccc(C(=O)N[C@@H](Cc2ccccc2)[C@H](O)C(=O)N2C[C@@H](Cl)C[C@H]2C(=O)NC(C)(C)C)c(C)c1O` showed an IC50 of 8.2 nM. That is a single-digit nanomolar value.
The result for `Cc1c(O)cc(F)cc1C(=O)N[C@@H](Cc1ccccc1)[C@H](O)C(=O)N1C[C@@H](Cl)C[C@H]1C(=O)NC(C)(C)C` reads 1.7 nM.
To `Cc1ccc(C(=O)N[C@@H](Cc2cccc(C(F)(F)F)c2)[C@H](O)C(=O)N2C[C@@H](Cl)C[C@H]2C(=O)NC(C)(C)C)c(C)c1O` belongs 3.5 nM.
Regarding `Cc1cc(O)c(C)c(C(=O)N[C@@H](Cc2cccc(C(F)(F)F)c2)[C@H](O)C(=O)N2C[C@@H](Cl)C[C@H]2C(=O)NC(C)(C)C)c1`, the IC50 is 1.9 nM.
The result for `Cc1ccc(O)c(C)c1C(=O)N[C@@H](Cc1ccc(C(F)(F)F)cc1)[C@H](O)C(=O)N1C[C@@H](Cl)C[C@H]1C(=O)NC(C)(C)C` reads 3.9 nM; that for `Cc1cccc(C[C@H](NC(=O)c2cc(C)cc(O)c2C)[C@H](O)C(=O)N2C[C@@H](Cl)C[C@H]2C(=O)NC(C)(C)C)c1`, 1.3 nM; that for `Cc1cccc(C[C@H](NC(=O)c2c(C)ccc(O)c2C)[C@H](O)C(=O)N2C[C@@H](Cl)C[C@H]2C(=O)NC(C)(C)C)c1`, 3.4 nM.
The result for `Cc1ccc(C[C@H](NC(=O)c2c(C)ccc(O)c2C)[C@H](O)C(=O)N2C[C@@H](Cl)C[C@H]2C(=O)NC(C)(C)C)cc1` reads 3.6 nM; that for `Cc1ccc(C(=O)N[C@@H](Cc2ccc3ccccc3c2)[C@H](O)C(=O)N2C[C@@H](Cl)C[C@H]2C(=O)NC(C)(C)C)c(C)c1O`, 3.2 nM; that for `Cc1cc(O)c(C)c(C(=O)N[C@@H](Cc2ccc3sccc3c2)[C@H](O)C(=O)N2C[C@@H](Cl)C[C@H]2C(=O)NC(C)(C)C)c1` [(2S,4S)-1-[(2S,3S)-4-(1-benzothiophen-5-yl)-2-hydroxy-3-[(3-hydroxy-2,5-dimethylphenyl)formamido]butanoyl]-N-tert-butyl-4-chloropyrrolidine-2-carboxamide], 1.5 nM.
The result for `Cc1c(O)cccc1C(=O)N[C@@H](Cc1ccc2sccc2c1)[C@H](O)C(=O)N1C[C@@H](Cl)C[C@H]1C(=O)NC(C)(C)C` [(2S,4S)-1-[(2S,3S)-4-(1-benzothiophen-5-yl)-2-hydroxy-3-[(3-hydroxy-2-methylphenyl)formamido]butanoyl]-N-tert-butyl-4-chloropyrrolidine-2-carboxamide] reads 1.4 nM.
As to `Cc1ccccc1C[C@H](NC(=O)c1ccc(C)c(O)c1C)[C@H](O)C(=O)N1C[C@@H](Cl)C[C@H]1C(=O)NC(C)(C)C` [(2S,4S)-N-tert-butyl-4-chloro-1-[(2S,3S)-2-hydroxy-3-[(3-hydroxy-2,4-dimethylphenyl)formamido]-4-(2-methylphenyl)butanoyl]pyrrolidine-2-carboxamide], the IC50 came to 49.9 nM. This IC50 lies about 36-fold higher than the previous one.
The result for `Cc1ccc(C[C@H](NC(=O)c2ccc(C)c(O)c2C)[C@H](O)C(=O)N2C[C@@H](Cl)C[C@H]2C(=O)NC(C)(C)C)cc1` [(2S,4S)-N-tert-butyl-4-chloro-1-[(2S,3S)-2-hydroxy-3-[(3-hydroxy-2,4-dimethylphenyl)formamido]-4-(4-methylphenyl)butanoyl]pyrrolidine-2-carboxamide] reads 8.6 nM.
To `Cc1ccc(C(=O)N[C@@H](Cc2ccc(C(F)(F)F)cc2)[C@H](O)C(=O)N2C[C@@H](Cl)C[C@H]2C(=O)NC(C)(C)C)c(C)c1O` [(2S,4S)-N-tert-butyl-4-chloro-1-[(2S,3S)-2-hydroxy-3-[(3-hydroxy-2,4-dimethylphenyl)formamido]-4-[4-(trifluoromethyl)phenyl]butanoyl]pyrrolidine-2-carboxamide] belongs 6.3 nM; to `Cc1cc(O)c(C)c(C(=O)N[C@@H](Cc2ccc3ccccc3c2)[C@H](O)C(=O)N2C[C@@H](Cl)C[C@H]2C(=O)NC(C)(C)C)c1` [(2S,4S)-N-tert-butyl-4-chloro-1-[(2S,3S)-2-hydroxy-3-[(3-hydroxy-2,5-dimethylphenyl)formamido]-4-(naphthalen-2-yl)butanoyl]pyrrolidine-2-carboxamide], 0.8 nM.
The result for `Cc1cc(O)c(C)c(C(=O)N[C@@H](Cc2ccccc2)[C@H](O)C(=O)N2C[C@@H](Cl)C[C@H]2C(=O)NC(C)(C)C)c1` [(2S,4S)-N-tert-butyl-4-chloro-1-[(2S,3S)-2-hydroxy-3-[(3-hydroxy-2,5-dimethylphenyl)formamido]-4-phenylbutanoyl]pyrrolidine-2-carboxamide] reads 1.3 nM.
Molecule `Cc1ccccc1C[C@H](NC(=O)c1c(C)ccc(O)c1C)[C@H](O)C(=O)N1C[C@@H](Cl)C[C@H]1C(=O)NC(C)(C)C` [(2S,4S)-N-tert-butyl-4-chloro-1-[(2S,3S)-2-hydroxy-3-[(3-hydroxy-2,6-dimethylphenyl)formamido]-4-(2-methylphenyl)butanoyl]pyrrolidine-2-carboxamide] had an IC50 of 34.3 nM.
The result for `Cc1ccc(O)c(C)c1C(=O)N[C@@H](Cc1ccc2ccccc2c1)[C@H](O)C(=O)N1C[C@@H](Cl)C[C@H]1C(=O)NC(C)(C)C` [(2S,4S)-N-tert-butyl-4-chloro-1-[(2S,3S)-2-hydroxy-3-[(3-hydroxy-2,6-dimethylphenyl)formamido]-4-(naphthalen-2-yl)butanoyl]pyrrolidine-2-carboxamide] reads 2.8 nM; that for `Cc1ccc(O)c(C)c1C(=O)N[C@@H](Cc1cccc(C(F)(F)F)c1)[C@H](O)C(=O)N1C[C@@H](Cl)C[C@H]1C(=O)NC(C)(C)C` [(2S,4S)-N-tert-butyl-4-chloro-1-[(2S,3S)-2-hydroxy-3-[(3-hydroxy-2,6-dimethylphenyl)formamido]-4-[3-(trifluoromethyl)phenyl]butanoyl]pyrrolidine-2-carboxamide], 4.6 nM.
In the case of `Cc1ccccc1C[C@H](NC(=O)c1cccc(O)c1C)[C@H](O)C(=O)N1C[C@@H](Cl)C[C@H]1C(=O)NC(C)(C)C` [(2S,4S)-N-tert-butyl-4-chloro-1-[(2S,3S)-2-hydroxy-3-[(3-hydroxy-2-methylphenyl)formamido]-4-(2-methylphenyl)butanoyl]pyrrolidine-2-carboxamide], the IC50 turned out to be 4.5 nM.
In the case of `Cc1c(O)cccc1C(=O)N[C@@H](Cc1ccc(O)cc1)[C@H](O)C(=O)N1C[C@@H](Cl)C[C@H]1C(=O)NC(C)(C)C` [(2S,4S)-N-tert-butyl-4-chloro-1-[(2S,3S)-2-hydroxy-3-[(3-hydroxy-2-methylphenyl)formamido]-4-(4-hydroxyphenyl)butanoyl]pyrrolidine-2-carboxamide], the IC50 was found to be 1.3 nM.
The result for `Cc1c(O)cccc1C(=O)N[C@@H](Cc1ccc(C(F)(F)F)cc1)[C@H](O)C(=O)N1C[C@@H](Cl)C[C@H]1C(=O)NC(C)(C)C` [(2S,4S)-N-tert-butyl-4-chloro-1-[(2S,3S)-2-hydroxy-3-[(3-hydroxy-2-methylphenyl)formamido]-4-[4-(trifluoromethyl)phenyl]butanoyl]pyrrolidine-2-carboxamide] reads 0.6 nM; that for `Cc1c(O)cc(F)cc1C(=O)N[C@@H](Cc1ccc2ccccc2c1)[C@H](O)C(=O)N1C[C@@H](Cl)C[C@H]1C(=O)NC(C)(C)C` [(2S,4S)-N-tert-butyl-4-chloro-1-[(2S,3S)-3-[(5-fluoro-3-hydroxy-2-methylphenyl)formamido]-2-hydroxy-4-(naphthalen-2-yl)butanoyl]pyrrolidine-2-carboxamide], 1.2 nM; that for `Cc1c(O)cccc1C(=O)N[C@@H](Cc1ccc(F)cc1F)[C@H](O)C(=O)N1C[C@@H](Cl)C[C@H]1C(=O)NC(C)(C)C` [(2S,4S)-N-tert-butyl-4-chloro-1-[(2S,3S)-4-(2,4-difluorophenyl)-2-hydroxy-3-[(3-hydroxy-2-methylphenyl)formamido]butanoyl]pyrrolidine-2-carboxamide], 1.6 nM.
The result for `Cc1c(O)cccc1C(=O)N[C@@H](Cc1ccccc1F)[C@H](O)C(=O)N1C[C@@H](Cl)C[C@H]1C(=O)NC(C)(C)C` [(2S,4S)-N-tert-butyl-4-chloro-1-[(2S,3S)-4-(2-fluorophenyl)-2-hydroxy-3-[(3-hydroxy-2-methylphenyl)formamido]butanoyl]pyrrolidine-2-carboxamide] reads 0.7 nM.
The result for `Cc1c(O)cccc1C(=O)N[C@@H](Cc1ccc(F)c(F)c1)[C@H](O)C(=O)N1C[C@@H](Cl)C[C@H]1C(=O)NC(C)(C)C` [(2S,4S)-N-tert-butyl-4-chloro-1-[(2S,3S)-4-(3,4-difluorophenyl)-2-hydroxy-3-[(3-hydroxy-2-methylphenyl)formamido]butanoyl]pyrrolidine-2-carboxamide] reads 0.8 nM.
For the molecule `Cc1ccc(C[C@H](NC(=O)c2cccc(O)c2C)[C@H](O)C(=O)N2C[C@@H](Cl)C[C@H]2C(=O)NC(C)(C)C)cc1C` [(2S,4S)-N-tert-butyl-4-chloro-1-[(2S,3S)-4-(3,4-dimethylphenyl)-2-hydroxy-3-[(3-hydroxy-2-methylphenyl)formamido]butanoyl]pyrrolidine-2-carboxamide], the IC50 was 1.2 nM. The IC50 values of the last two molecules are within 1.5-fold of each other.
The result for `Cc1c(O)cccc1C(=O)N[C@@H](Cc1cccc(F)c1)[C@H](O)C(=O)N1C[C@@H](Cl)C[C@H]1C(=O)NC(C)(C)C` [(2S,4S)-N-tert-butyl-4-chloro-1-[(2S,3S)-4-(3-fluorophenyl)-2-hydroxy-3-[(3-hydroxy-2-methylphenyl)formamido]butanoyl]pyrrolidine-2-carboxamide] reads 0.6 nM; that for `Cc1c(O)cccc1C(=O)N[C@@H](Cc1ccc(F)cc1)[C@H](O)C(=O)N1C[C@@H](Cl)C[C@H]1C(=O)NC(C)(C)C` [(2S,4S)-N-tert-butyl-4-chloro-1-[(2S,3S)-4-(4-fluorophenyl)-2-hydroxy-3-[(3-hydroxy-2-methylphenyl)formamido]butanoyl]pyrrolidine-2-carboxamide], 0.9 nM; that for `Cc1cccc(C[C@H](NC(=O)c2ccc(C)c(O)c2C)[C@H](O)C(=O)N2C[C@@H](Cl)C[C@H]2C(=O)NC(C)(C)C)c1` [(3-Hydroxy-2,4-dimethylbenzoyl)-(2(S)-hydroxy-3(S)-amino-4-m-tolylbutanoyl)-4(S)-Cl-Pro-NH-t-Bu], 2.5 nM.

The values above are taken from BindingDB's records for doi:10.1016/s0968-0896(99)00127-3 (Sankyo, 1999).
